Test [1] deals with CT26.CL25 colon cancer tumor endothelial cells. Description: Colon CT26 ex vivo model of tumor angiogenesis. The class given is cell-based, mouse. As to the method:
An ex vivo tumor angiogenesis model was developed to test the efficacy of anti-cancer candidate agents. The following protocol describes the Ex Vivo Tumor Angiogenesis Model.
• 1. The day before the experiment, all necessary tools were sprayed with 70% ethanol and sterilized under UV light overnight, including blade, dissecting and micro-dissecting scissors and […]. 24-well dishes were placed at 4° C. to pre-chill plates and Matrigel was thawed, 24 hours before tumor dissection. • 2. 70% ethanol was sprayed on working bench. Two sterile petri dishes were prepared with 10 ml sterile PBS. The following steps 3 and 4 are necessary for mouse tumor models. For fresh human tumor, steps 3 and 4 are skipped. • 3. The tumor-bearing mice were euthanized. 70% ethanol was sprayed on the mouse and the tumor was removed using sterilized dissecting tools (avoid the fur). The tumor was rinsed in petri dish with sterile PBS to remove ethanol and fur. The tumor was transferred to a new petri dish with PBS for dissection. The dish is placed on ice. • 4. Pre-chilled sterile pipet tips were used to seed regular Matrigel in 24 well plates on ice. Matrigel (30 μl) was dropped in the middle of each well without touching the edge of the well (avoid introducing bubbles if possible). • 5. The tumor was cut in halves using the sterile blade. Healthy tumor tissue that is not necrotic and is within the tumor capsule was identified and isolated. The healthy tumor tissue was cut into small pieces. For instance, a suitable size for the tumor tissue is 0.5 mm (H)×0.5 mm (L)×0.3 mm (D) with a total volume of 0.075 mm^3. • 6. Each tumor piece was gently transferred and embedded in the Matrigel drop in the 24-well plate. The embedded piece was placed in the bottom and middle of each Matrigel drop. The plate was kept on ice all the time. • 7. After seeding the tumor pieces, plates were incubated in a 37° C. cell culture incubator without medium for 10 minutes in order for the Matrigel to solidify. • 8. Endothelial Growth Medium (0.5 ml) was added to each well and incubated at 37° C. with 5% CO2. Treatment was not added until the new endothelial cells was grown out of the tumor or were larger than 3 mm in diameter. This usually takes 4 days for the LL2 Lewis lung cancer model and 7 days for the CT26 colon cancer model. For human tumor models, the growth time is typically 2-3 weeks, depending on the tumor type. Media was changed every 4 days during prolonged culture. Typically, when the tumor tissue grows to 2 mm in diameter, it was good for drug testing. A size of about 3 mm in diameter can make visualization easier. • 9. When the assay was ready to be analyzed for cell death (e.g., 48 hours after drug addition), the dye mixture was prepared by mixing 6 μl of green dye to stain live cells (5 mg/ml Fluorescein diacetate or FDA in DMSO) with 30 μl of red dye (2.5 mg/ml Propidium iodide or PI in PBS) to stain dead cells in an Eppendorf tube. The FDA dye needs to be stored frozen in a −20° C. freezer because it has a labile ester bond. • 10. 1 μl of the dye mixture was added to each well of the 24-well dish. It is usually preferred to do one 24-well dish at a time given the amount of time needed to take pictures (the green dye is not as stable in the cells in the long term). • 11. The dish was gently rocked a few times to mix the dye with the media in the wells and incubate the dish at 37° C. for 10 min (too long incubation can make the green signal too intense). • 12. Each well was washed with 0.5 ml of sterile PBS and then 0.5 ml of phenol red free SFM was added to each well. Alternatively 0.5 ml of regular Endothelial Cell Growth Media can be added to each well if this well needs to be continuously maintained after the experiment. • 13. An inverted microscope using the 2× objective lens was used to observe morphological changes in the experimental wells. • 14. […]

The subject of test [2] is LL/2 lung cancer tumor endothelial cells. Description: Lung LL2 ex vivo model of tumor angiogenesis. The class given is cell-based, mouse. To be noted: for 48 hrs (morphology observations): LL/2 tumor endothelial cells; for Cell death: drug treatment for two days, ratio of red area to total endothelial cell area. In a few lines: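 LL2 mouse tumor fragments (~0.075 mm³) embedded in Matrigel and cultured in endothelial growth medium at 37 °C until endothelial outgrowth (~4 days) before treatment. Cell death assessed e.g. 48 h after drug by fluorescein diacetate (live)/propidium iodide (dead) staining and red/green fluorescence imaging.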

Where [3] appears, read: Mus musculus, Endothelial cell, 48 h, read-out: Cell death.

Take `CCCCCCCOc1ccc(S(=O)(=O)c2cnc3ccc([S+](C)[O-])cc3c2N2CCCN(CCN3CCCCC3)CC2)cc1` (centres unmarked) [Compound 255]: in test [1] (Conc. 10 μm), the “48 hrs (morphology observations after 48 hours)” value came to 0. Moreover, the cytotoxicity at 10 µM in test [1] (setting [3]) worked out at 0%. Moreover, in test [2] (20 μm), the “48 hrs (morphology observations)” value was “* (50% or less of cells vesicularize in cell shape)” and the Cell death is listed as 10%.
On to `CCc1ccc(S(=O)(=O)c2cnc3ccc(OC(F)(F)F)cc3c2-n2ccnc2)cc1` [Compound 118], for which the “48 hrs (morphology observations after 48 hours)” value in test [1] (Conc. 20 μm) is listed as “*** (100% of endothelial cells vesicularize in cell shape)”. The cytotoxicity at 20 µM in test [1] (setting [3]) and in test [2] (setting [3]) was 100% each time. The “48 hrs (morphology observations)” value in test [2] (20 μm) was “*** (more than 50% but less than 100% of endothelial cells vesicularize in cell shape)”.
In the case of `CCCCOc1ccc(S(=O)(=O)c2cnc3ccc(S(C)(=O)=O)cc3c2N2CCCN(C)CC2)cc1` [Compound 164], the “48 hrs (morphology observations after 48 hours)” value in test [1] (Conc. 40 μm) is “**** (100% of endothelial cells vesicularize in cell shape and look flattened in morphology (indicating disintegration of the cell body))”. Further, in test [1] (setting [3]), the cytotoxicity at 40 µM is 100%. Moreover, in test [2] (40 μm), the “48 hrs (morphology observations)” value is “**** (100% of endothelial cells vesicularize in cell shape and look flattened in morphology (indicating disintegration of the cell body))”; the Cell death worked out at 95%.
For `CCCCOc1ccc(S(=O)(=O)c2cnc3ccc([S+](C)[O-])cc3c2N2CCCN(CCN3CCCCC3)CC2)cc1` (centres unmarked) [Compound 209], the “48 hrs (morphology observations after 48 hours)” value in test [1] (Conc. 40 μm) is reported as “*** (100% of endothelial cells vesicularize in cell shape)”. The cytotoxicity at 40 µM in test [1] (setting [3]) was 90%. In addition, in test [2] (40 μm), the “48 hrs (morphology observations)” value was “* (50% or less of cells vesicularize in cell shape)” and the Cell death amounted to 60%.
`CCc1ccc(S(=O)(=O)c2cnc3ccc(OC(F)(F)F)cc3c2N2CCN(c3ccc(C#N)cc3)CC2)cc1` [Compound 45]: the “48 hrs (morphology observations after 48 hours)” value in test [1] (Conc. 40 μm) was found to be 0. The cytotoxicity at 40 µM in test [1] (setting [3]) was 0%; in test [2] (setting [3]), 10%.
In the case of `CCc1ccc(S(=O)(=O)c2cnc3ccc(CC#N)cc3c2N2CCC(N3CCCCC3)CC2)cc1` [Compound 55], the “48 hrs (morphology observations after 48 hours)” value in test [1] (Conc. 40 μm) was 0. In test [1] (setting [3]), the cytotoxicity at 40 µM was 50%. Moreover, the Cell death in test [2] (40 μm) worked out at 70%.
Turning to `CCCCOc1ccc(S(=O)(=O)c2cnc3ccc(C(=O)NC(C)C)cc3c2N2CCCN(C)CC2)cc1` [Compound 192], the “48 hrs (morphology observations after 48 hours)” value in test [1] (Conc. 40 μm) is on record as 0. In addition, the cytotoxicity at 40 µM in test [1] (setting [3]) is 10%. In addition, in test [2] (40 μm), the “48 hrs (morphology observations)” value is given as “*** (more than 50% but less than 100% of endothelial cells vesicularize in cell shape)” and the Cell death turned out to be 60%.
For `O=[N+]([O-])c1ccc(S(=O)(=O)c2cnc3ccc(OC(F)(F)F)cc3c2N2CCC(O)CC2)cc1` [Compound 61], in test [1] (Conc. 40 μm), the “48 hrs (morphology observations after 48 hours)” value is given as 0. Moreover, in test [1] (setting [3]), the cytotoxicity at 40 µM came out at 20%. Also, the Cell death in test [2] (40 μm) worked out at 50%.
With `CCOC(=O)c1ccc2ncc(S(=O)(=O)c3ccc(CC)cc3)c(N3CCC(N4CCCCC4)CC3)c2c1` [Compound 64], in test [1] (Conc. 40 μm), the “48 hrs (morphology observations after 48 hours)” value is “*** (100% of endothelial cells vesicularize in cell shape)”. The cytotoxicity at 40 µM in test [1] (setting [3]) and in test [2] (setting [3]) was 100% in each case. In addition, the “48 hrs (morphology observations)” value in test [2] (40 μm) is on record as “*** (more than 50% but less than 100% of endothelial cells vesicularize in cell shape)”.
For the molecule `COc1ccc(S(=O)(=O)c2cnc3ccc(OC(F)(F)F)cc3c2N(CCO)CCO)cc1OC` [Compound 72], the “48 hrs (morphology observations after 48 hours)” value in test [1] (Conc. 40 μm) came to 0. Besides, the cytotoxicity at 40 µM in test [1] (setting [3]) came to 0%. Further, the Cell death in test [2] (40 μm) is on record as 20%.
For the molecule `CCc1ccc(S(=O)(=O)c2cnc3ccc(OC(F)(F)F)cc3c2N(CC)CC)cc1` [Compound 81], the “48 hrs (morphology observations after 48 hours)” value in test [1] (Conc. 40 μm) was 0. The cytotoxicity at 40 µM in test [1] (setting [3]) and in test [2] (setting [3]) was 0% in each case.
As to `CCN(CC)CCNC(=O)c1ccc2ncc(S(=O)(=O)c3ccc(OC)cc3)c(N3CCCN(C)CC3)c2c1` [Compound 166], in test [1] (Conc. 40 μm), the “48 hrs (morphology observations after 48 hours)” value is recorded as “*** (100% of endothelial cells vesicularize in cell shape)”. Besides, the cytotoxicity at 40 µM in test [1] (setting [3]) stood at 60%. In test [2] (40 μm), the “48 hrs (morphology observations)” value is 0 and the Cell death worked out at 10%.
`COc1ccc(S(=O)(=O)c2cnc3ccc(CC#N)cc3c2-n2cncn2)cc1` [Compound 98]: in test [1] (Conc. 10 μm), the “48 hrs (morphology observations after 48 hours)” value is recorded as “*** (100% of endothelial cells vesicularize in cell shape)”. Further, in test [1] (setting [3]), the cytotoxicity at 10 µM stood at 50%. For the same molecule, the Cell death in test [2] (20 μm) was found to be 10%.
Consider `CCc1ccc(S(=O)(=O)c2cnc3ccc(OC(F)(F)F)cc3c2N2CCCC(O)C2)cc1` (centres unmarked) [Compound 82], for which the “48 hrs (morphology observations after 48 hours)” value in test [1] (Conc. 40 μm) stood at 0. Besides, the cytotoxicity at 40 µM in test [1] (setting [3]) turned out to be 10%. In test [2] (40 μm), the Cell death turned out to be 60%.
Regarding `CCCCOc1ccc(S(=O)(=O)c2cnc3ccc(SC)cc3c2N2CCCN(C)CC2)cc1` [Compound 160], the “48 hrs (morphology observations after 48 hours)” value in test [1] (Conc. 40 μm) was “**** (100% of endothelial cells vesicularize in cell shape and look flattened in morphology (indicating disintegration of the cell body))”. The cytotoxicity at 40 µM in test [1] (setting [3]) and in test [2] (setting [3]) was 100% throughout. The “48 hrs (morphology observations)” value in test [2] (40 μm) is “**** (100% of endothelial cells vesicularize in cell shape and look flattened in morphology (indicating disintegration of the cell body))”.
As for `CCc1ccc(S(=O)(=O)c2cnc3ccc(OC(F)(F)F)cc3c2-n2nnc3ccccc32)cc1` [Compound 112], the “48 hrs (morphology observations after 48 hours)” value in test [1] (Conc. 40 μm) is listed as “** (more than 50% but less than 100% of endothelial cells vesicularize in cell shape)”. Also, the cytotoxicity at 40 µM in test [1] (setting [3]) came out at 10%. In addition, in test [2] (20 μm), the “48 hrs (morphology observations)” value is given as “*** (more than 50% but less than 100% of endothelial cells vesicularize in cell shape)” and the Cell death is listed as 70%.
As to `CCCCOc1ccc(S(=O)(=O)c2cnc3ccc(OC(F)(F)F)cc3c2NN2CCN(C)CC2)cc1` [Compound 92], in test [1] (Conc. 40 μm), the “48 hrs (morphology observations after 48 hours)” value is reported as 0. Besides, in test [1] (setting [3]), the cytotoxicity at 40 µM stood at 0%. The Cell death in test [2] (20 μm) came out at 10%.
For the molecule `CCCCCCCOc1ccc(S(=O)(=O)c2cnc3ccc([S+](C)[O-])cc3c2N2CCC(N3CCCN(C)CC3)CC2)cc1` (centres unmarked) [Compound 256], the “48 hrs (morphology observations after 48 hours)” value in test [1] (Conc. 10 μm) is listed as “*** (100% of endothelial cells vesicularize in cell shape)”. For the same molecule, the cytotoxicity at 10 µM in test [1] (setting [3]) came to 90%. Besides, in test [2] (20 μm), the “48 hrs (morphology observations)” value was “**** (100% of endothelial cells vesicularize in cell shape and look flattened in morphology (indicating disintegration of the cell body))”; the Cell death is reported as 100%.
For `COc1ccc(S(=O)(=O)c2cnc3ccc(OC(F)(F)F)cc3c2NN2CCN(C)CC2)cc1` [Compound 85], the “48 hrs (morphology observations after 48 hours)” value in test [1] (Conc. 40 μm) is 0. Also, in test [1] (setting [3]), the cytotoxicity at 40 µM amounted to 50%. The Cell death in test [2] (40 μm) came out at 80%.
With `COc1ccc(S(=O)(=O)c2cnc3ccc(OC(F)(F)F)cc3c2NN2CCN(C)CC2)cc1OC` [Compound 88], in test [1] (Conc. 40 μm), the “48 hrs (morphology observations after 48 hours)” value is on record as “*** (100% of endothelial cells vesicularize in cell shape)”. The cytotoxicity at 40 µM in test [1] (setting [3]) was found to be 60%. In addition, in test [2] (40 μm), the “48 hrs (morphology observations)” value is 0 and the Cell death is on record as 70%.

The record behind these values is patent US20250230226A1, “PLXDC1/PLXDC2 ACTIVATORS AND THEIR USE IN THE TREATMENT OF BLOOD VESSEL DISORDERS” (THE REGENTS OF THE UNIVERSITY OF CALIFORNIA, priority 2019, published 2025).
